The values that follow come from patent US12691101B2, “Compound and method for preventing or treating of respiratory diseases comprising the same as an active ingredient” (YONSEI UNIVERSITY, UNIVERSITY - INDUSTRY FOUNDATION (UIF), priority 2019, dated 2026).

For the experiment, the target named is T1, human wild-type (WT)-pendrin (Homo sapiens, UniProt O43511).
T1 construct: expressed in transfected cells
T1 sequence (O43511 1-780): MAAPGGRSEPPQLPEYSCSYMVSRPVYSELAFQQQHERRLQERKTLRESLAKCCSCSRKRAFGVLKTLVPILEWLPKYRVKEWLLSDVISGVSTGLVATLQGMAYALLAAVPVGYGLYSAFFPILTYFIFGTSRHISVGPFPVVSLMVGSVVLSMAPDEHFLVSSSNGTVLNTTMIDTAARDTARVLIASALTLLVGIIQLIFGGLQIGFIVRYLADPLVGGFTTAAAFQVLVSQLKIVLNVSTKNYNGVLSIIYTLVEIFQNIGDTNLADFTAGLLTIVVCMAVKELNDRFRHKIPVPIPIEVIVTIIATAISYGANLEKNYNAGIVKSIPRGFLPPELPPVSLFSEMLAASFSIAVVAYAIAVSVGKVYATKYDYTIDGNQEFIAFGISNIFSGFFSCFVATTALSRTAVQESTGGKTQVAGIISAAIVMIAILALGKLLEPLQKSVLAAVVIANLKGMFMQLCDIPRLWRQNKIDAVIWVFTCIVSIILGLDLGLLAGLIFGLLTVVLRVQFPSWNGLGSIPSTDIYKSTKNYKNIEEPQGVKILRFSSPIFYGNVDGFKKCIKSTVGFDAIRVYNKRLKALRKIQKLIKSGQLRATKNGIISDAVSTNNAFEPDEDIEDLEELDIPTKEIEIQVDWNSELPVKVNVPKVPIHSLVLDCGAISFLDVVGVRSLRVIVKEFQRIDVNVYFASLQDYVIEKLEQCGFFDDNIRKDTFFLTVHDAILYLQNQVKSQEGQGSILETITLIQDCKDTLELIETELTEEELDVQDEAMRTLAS
In words: Pendrin-mediated Cl^−/I^− exchange activity, YFP fluorescence in CHO-K1 cells. The format is cell-based. As to conditions: for inhibition at 30 µM: CHO-K1, 30 μM, read-out: Pendrin inhibitory activity at 30 μM (%); for IC50: compounds showing pendrin inhibitory activity of 50% or more at 30 μM, read-out: IC50.

Each structure is given as a SMILES string.

As to `Cc1cc(C)cc(C2=NC(=Cc3cccs3)C(=O)O2)c1` [F150, 2-(3,5-Dimethylphenyl)-4-(thiophen-2-ylmethylene)oxazol-5(4H)-one], the inhibition at 30 µM came to 6.9%.

As for `COC(=O)C(=Cc1ccc[nH]1)NC(=O)c1ccc(C(C)(C)C)cc1` [G1, Methyl 2-(4-(tert-butyl)benzamido)-3-(1H-pyrrol-2-yl)acrylate], the inhibition at 30 µM came out at 2.9%.

Take `COC(=O)C(=Cc1cccs1)NC(=O)c1ccc(C(C)(C)C)cc1` [G2, Methyl 2-(4-(tert-butyl)benzamido)-3-(thiophen-2-yl)acrylate]: the inhibition at 30 µM amounted to 3.8%.

The term IC50 denotes the concentration that gives 50% inhibition. For `CC(C)(C)c1ccc(C(=O)NC(=Cc2cccs2)C(=O)O)cc1` [G3, 2-(4-(tert-butyl)benzamido)-3-(thiophen-2-yl)acrylate], the inhibition at 30 µM turned out to be 55.6% and the IC50 was found to be 26.8 ± 2.54 µM.

On to `COC(=O)C(=Cc1ccco1)NC(=O)c1ccc(C(C)(C)C)cc1` [G4, Methyl 2-(4-(tert-butyl)beznamido)-3-(furan-2-yl)acrylate], for which the inhibition at 30 µM turned out to be 4.4%.

Turning to `CC(C)(C)c1ccc(C(=O)NC(=Cc2ccco2)C(=O)O)cc1` [G5, 2-(4-(tert-butyl)benzamido)-3-(furan-2-yl)acrylate], the inhibition at 30 µM is 60.9% and the IC50 is 22.6 ± 2.46 µM.

On to `CC(C)(C)OC(=O)C(=Cc1ccc[nH]1)NC(=O)c1ccc(C(C)(C)C)cc1` [G6, tert-butyl 2-(4-(tert-butyl)benzamido)-3-(1H-pyrrol-2-yl)acrylate], for which the inhibition at 30 µM was determined as 4.7%.

Regarding `CC(C)(C)c1ccc(C(=O)NC(=Cc2ccc[nH]2)C(=O)O)cc1` [G7, 2-(4-(tert-butyl)benzamido)-3-(1H-pyrrol-2-yl)acrylate], the “efficacy as pendrin inhibitor compared with F10” value is “lower efficacy than F10”, the inhibition at 30 µM was found to be 82.1% and the IC50 was 6.8 ± 0.66 µM.

On to `CC(C)(C)c1ccc(C(=O)NC(=Cc2ccsc2)C(=O)O)cc1` [G8, 2-(4-(tert-butyl)benzamido)-3-(thiophen-3-yl)acrylate], for which the inhibition at 30 µM turned out to be 68.8% and the IC50 amounted to 20.2 ± 2.12 µM.

In the case of `Cc1ncsc1C=C(NC(=O)c1ccc(C(C)(C)C)cc1)C(=O)O` [G9, 2-(4-(tert-butyl)benzamido)-3-(4-methylthiazol-5-yl)acrylate], the inhibition at 30 µM came to 3.9%.

Turning to `Cn1cc(C=C(NC(=O)c2ccc(C(C)(C)C)cc2)C(=O)O)cn1` [G10, 2-(4-(tert-butyl)benzamido)-3-(1-methyl-1H-pyrazol-4-yl)acrylate], the inhibition at 30 µM came to 4.3%.

Take `CCCCc1ccc(C(=O)NC(=Cc2ccc[nH]2)C(=O)OC)cc1` [G11, Methyl 2-(4-butylbenzamido)-3-(1H-pyrrol-2-yl)acrylate]: the inhibition at 30 µM is 3.5%.

With `CCCCc1ccc(C(=O)NC(=Cc2cccs2)C(=O)O)cc1` [G12, 2-(4-Butylbenzamido)-3-(thiophen-2-yl)acrylate], the inhibition at 30 µM was found to be 48.1%.

On to `CC(C)(C)c1ccc(C(=O)NC(=Cc2cccn2-c2ccccc2)C(=O)O)cc1` [G13, 2-(4-(tert-butyl)benzamido)-3-(1-phenyl-1H-pyrrol-2-yl)acrylate], for which the inhibition at 30 µM stood at 22.4%.

In the case of `COC(=O)C(=Cc1cccn1-c1ccccc1)NC(=O)c1ccc(C(C)(C)C)cc1` [G14, Methyl 2-(4-(tert-butyl)benzamido)-3-(1-phenyl-1H-pyrrol-2-yl)acrylate], the inhibition at 30 µM came out at 2.5%.

With `COC(=O)C(=Cc1ccc[nH]1)NC(=O)c1ccc(C(F)(F)F)cc1` [G15, Methyl 3-(1H-pyrrol-2-yl)-2-(4-(trifluoromethyl)benzamido)acrylate], the inhibition at 30 µM came out at 3.4%.

Regarding `O=C(O)C(=Cc1ccco1)NC(=O)c1ccc(Br)cc1` [G16, 2-(4-Bromobenzamido)-3-(furan-2-yl)acrylate], the “Pendrin inhibitory activity at 30 μM (%)” value came to 1.8%.

As for `COC(=O)C(=Cc1ccco1)NC(=O)c1ccc(C(F)(F)F)cc1` [G17, Methyl 3-(furan-2-yl)-2-(4-(trifluoromethyl)benzamido)acrylate], the inhibition at 30 µM was determined as 1.1%.

As for `O=C(O)C(=Cc1ccco1)NC(=O)c1ccc(C(F)(F)F)cc1` [G18, 3-(Furan-2-yl)-2-(4-(trifluoromethyl)benzamido)acrylate], the inhibition at 30 µM was 2.7%.

In the case of `O=C(O)C(=Cc1cccs1)NC(=O)c1ccc(Br)cc1` [G19, 2-(4-Bromobenzamido)-3-(thiophen-2-yl)acrylate], the inhibition at 30 µM is 3.9%.

Regarding `COC(=O)C(=Cc1ccco1)NC(=O)c1ccc(Br)cc1` [G20, Methyl 2-(4-bromobenzamido)-3-(furan-2-yl)acrylate], the inhibition at 30 µM amounted to 3.4%.

For `O=C(O)C(=Cc1ccco1)NC(=O)c1ccc(Br)cc1` [G21, 2-(4-Bromobenzamido)-3-(furan-2-yl)acrylate], the “Pendrin inhibitory activity at 30 μM (%)” value was 4.1%.

On to `CCCCc1ccc(C(=O)NC(=Cc2ccc[nH]2)C(=O)O)cc1` [G22, 2-(4-Butylbenzamido)-3-(1H-pyrrol-2-yl)acrylate], for which the inhibition at 30 µM is 89.2% and the IC50 is 5.3 ± 0.58 µM.

Take `COC(=O)C(=Cc1ccc[nH]1)NC(=O)c1ccc(C(C)(C)C)cc1` [G23, Methyl-2-(4-(tert-butyl)benzamido)-3-(1H-pyrrol-2-yl)acrylate]: the “Pendrin inhibitory activity at 30 μM (%)” value stood at 2.7%.

For the molecule `O=C(O)C(=Cc1ccsc1)NC(=O)c1ccc2ccccc2c1` [G24, 2-(2-Naphthamido)-3-(thiophen-3-yl)acrylate], the inhibition at 30 µM was found to be 1.9%.

Turning to `CC(C)(C)c1ccc(C(=O)NC(=Cc2csc3ccccc23)C(=O)O)cc1` [G25, 3-(Benzo[b]thiophen-3-yl)-2-(4-(tert-butyl)benzamido)acrylate], the inhibition at 30 µM came out at 42.1%.

As to `CC(C)Cc1ccc(C(=O)NC(=Cc2ccc[nH]2)C(=O)O)cc1` [G26, 2-(4-Isobutylbenzamido)-3-(1H-pyrrol-2-yl)acrylate], the inhibition at 30 µM amounted to 85.6% and the IC50 is 10.2 ± 1.38 µM.

Turning to `Cc1ncsc1C=C(NC(=O)c1cccc2ccccc12)C(=O)O` [G27, 2-(1-Naphthamido)-3-(4-methylthiazol-5-yl)acrylate], the inhibition at 30 µM turned out to be 2.2%.

Consider `CCCc1ccc(C(=O)NC(=Cc2ccc[nH]2)C(=O)O)cc1` [G28, 2-(4-Propylbenzamido)-3-(1H-pyrrol-2-yl)acrylate], for which the inhibition at 30 µM turned out to be 53.5% and the IC50 was determined as 28.9 ± 2.18 µM.

Turning to `CCCCc1ccc(C(=O)NC(=Cc2ccsc2)C(=O)O)cc1` [G29], the inhibition at 30 µM was 81.7% and the IC50 was determined as 16.7 ± 1.87 µM.

For `CCCc1ccc(C(=O)NC(=Cc2cccs2)C(=O)O)cc1` [G30, 2-(4-Propylbenzamido)-3-(thiophen-2-yl)acrylate], the inhibition at 30 µM stood at 29.7%.

Turning to `Cc1ncsc1C=C(NC(=O)c1ccc(C(C)(C)C)cc1)C(=O)O` [G32, 2-(4-(tert-butyl)benzamido)-3-(4-methylthiazol-5-yl)acrylate], the “Pendrin inhibitory activity at 30 μM (%)” value was found to be 2.1%.

On to `CC(C)(C)c1ccc(C(=O)NC(=Cc2cc3ccccc3[nH]2)C(=O)O)cc1` [G33, 2-(4-(tert-butyl)benzamido)-3-(1H-indol-2-yl)acrylate], for which the inhibition at 30 µM worked out at 5.4%.

`CCCc1ccc(C(=O)NC(=Cc2ccco2)C(=O)O)cc1` [G34, 3-(Furan-2-yl)-2-(4-propylbenzamido)acrylate]: the inhibition at 30 µM amounted to 38.2%.

As for `CCCCCc1ccc(C(=O)NC(=Cc2ccco2)C(=O)O)cc1` [G35, 3-(Furan-2-yl)-2-(4-pentylbenzamido)acrylate], the inhibition at 30 µM was found to be 94% and the IC50 was determined as 6.1 ± 0.88 µM.

`CCCCOc1ccc(C(=O)NC(=Cc2cccs2)C(=O)O)cc1` [G36, 2-(4-Butoxybenzamido)-3-(thiophen-2-yl)acrylate]: the inhibition at 30 µM amounted to 4.8%.

For the molecule `CCCCCCc1ccc(C(=O)NC(=Cc2cccs2)C(=O)O)cc1` [G37, 2-(4-Hexylbenzamido)-3-(thiophen-2-yl)acrylate], the inhibition at 30 µM came out at 97.9% and the IC50 was 8.2 ± 0.79 µM.

In the case of `O=C(O)C(=Cc1cccs1)NC(=O)c1ccc2c(c1)CCC2` [G38, 2-(2,3-Dihydro-1H-indene-5-carboxamido)-3-(thiophen-2-yl)acrylate], the inhibition at 30 µM was determined as 2.5%.

For `O=C(O)C(=Cc1cccs1)NC(=O)c1ccc(OC(F)F)cc1` [G39, 2-(4-(Difluoromethoxy)benzamido)-3-(thiophen-2-yl)acrylate], the inhibition at 30 µM was 3.2%.

Regarding `CCCCCc1ccc(C(=O)NC(=Cc2cccs2)C(=O)O)cc1` [G40, 2-(4-Pentylbenzamido)-3-(thiophen-2-yl)acrylate], the inhibition at 30 µM was found to be 88.6% and the half-maximal inhibitory concentration (IC50) was 13.4 ± 1.69 µM.

On to `CCCCOc1ccc(C(=O)NC(=Cc2ccc[nH]2)C(=O)O)cc1` [G41, 2-(4-Butoxybenzamido)-3-(1H-pyrrol-2-yl)acrylate], for which the inhibition at 30 µM stood at 25.1%.

Take `Cc1cc(C)cc(C(=O)NC(=Cc2cccs2)C(=O)O)c1` [G42, 2-(3,5-Dimethylbenzamido)-3-(thiophen-2-yl)acrylate]: the inhibition at 30 µM worked out at 2.7%.
